Article PMC1082716, “Blockade of chemokine-induced signalling inhibits CCR5-dependent HIV infection in vitro without blocking gp120/CCR5 interaction” (Retrovirology, 2005)
Entries after “also recorded” stand apart in the source; their conditions may differ.

Assays:
CXCR4 = target: T1, CXCR4 (Homo sapiens, UniProt P61073); assay: Specific binding of biotinylated gp120:V3(IIIb) peptide to Jurkat cells; conditions: 100 μM biotinylated gp120:V3(IIIb); various concentrations of inhibitor; 10^6 cells in 100 μl, 4°C; triplicate
T1 construct: CXCR4, which is expressed on both THP-1 and Jurkat cells, but at higher levels on the T-cell line; endogenous in cells; host or cells: Jurkat T-cells (whole cells, 10^6 per well, 4°C)

[1] = system: SDF-1α induced chemotaxis; assay: SDF-1α induced chemotaxis (ChemoTx transwell); type: cell-based; conditions: 100 ng/ml SDF1α; various concentrations of inhibitor in both compartments; 5 × 10^4 cells per well; 2 h, 37°C; MTT; triplicate
Experimental: Figure 2 Effect of Peptide 3 on gp120:V3 loop peptide binding to cells. (a) The binding of 100 μM N-terminal biotinylated gp120:V3(IIIb) to THP-1 cells was measured in the presence of various concentrations of peptide 3. […] (b) Chemotaxis in response to 100 ng/ml SDF1α was measured in the presence of various concentrations of peptide 3. […] (e) As for (a) except that the effect of Peptide 3 on the binding of gp120:V3(BaL) to THP-1 cells was determined. (f) As for (b) except that the effect of Peptide 3 on chemotaxis induced by 25 ng/ml MIP1α was determined. All binding reactions were performed with 10^6 cells in 100 μl of binding medium at 4°C. Chemotaxis assays were performed with 5 × 10^4 cells per well. Values are mean ± SEM of triplicate determinations.
Chemotaxis experiments were performed essentially as previously described, using the ChemoTx disposable 96-well transwell migration plates, with PVP-free membrane (6 μm pore size). Chemoattractant (lower compartment) and cells upper compartment) were suspended in Gey's Balanced salt solution + 1 mg/ml BSA. […] Migration was allowed to proceed for 2 hours at 37°C. […] Each condition was determined in triplicate, and the number of cells migrating in the absence of chemoattractant was subtracted to determine the chemokine-dependent chemotaxis which was reported.

HIV strain MN = assay: HIV (MN) infection of THP-1 cells, p24gag immunofluorescence; type: cell-based, HIV-1; conditions: Peptide 3 100 μM
Experimental: However, it was possible to assess HIV infectivity of THP-1 cells using high sensitivity immunofluorescent detection of p24^gag. THP-1 cells were differentiated with hydrocortisone and PMA, then treated with TNFα, resulting in adherent monolayers on glass chamber slides. The THP-1 cells were then treated with either Peptide 3 (100 μM), MIP1α (100 ng/ml) or SDF1α (100 ng/ml) as for the Jurkat cells. THP-1 cells were infected with HIV strain MN at a concentration previously validated to produce easily detectable infection and grown for 72 h prior to fixation and staining for p24^gag. In contrast to the findings with HIV strain IIIb infection of Jurkat T cells, Peptide 3 inhibited infection of THP-1 cells by more than 80% (Fig 3c), very similar to the effect of MIP1α.
THP-1 cells were differentiated prior to infection with hydrocortisone and PMA in 8-well chamber slides. Sixteen hours prior to infection, TNFα was added (100 ng/ml). Twelve hours later, the medium was aspirated and replaced with fresh medium containing the test peptides or chemokines as appropriate. After a further four hours, virus from the frozen stocks was adeed to the cells, which were the processed for immunofluoresence between 28 h and 72 h after infection.
Jurkat cells following HIV infection were attached to 8-well chamber slides (Becton-Dickinson) by spinning the slides using a plate rotor in a Labofuge centrifuge (Heraeus) at 3,000 × g for 5 minutes. Attached Jurkat cells or THP-1 cells were then fixed by dipping the slides into ice-cold 70% ethanol for 90 seconds. Non-specific binding was blocked by incubation with 3% fatty acid-free BSA in TBS for 1 hour at room temprature. Cells were incubated with the mouse monoclonal anti-HIV-1 p24^gag antibody EH12E1 (ref 38;AIDS Reagent Program, NIBSC) at 10 μg/ml in 3% BSA in TBS at room temperature overnight. Unbound antibody was removed with 3 × 3 min washes in PBS, and bound antibody was then fixed to the slide by incubation with 3.8% phosphate buffered formalin pH7.2 for 10 mins at room temperature, followed by 3 further 3 min washes in PBS. Bound antibody was visualised using donkey anti-mouse IgG FITC conjugate (715-095-150; Jackson Immunoresearch) at 30 μg/ml in 3% BSA/TBS + 1 ng/ml Hoescht 33342 for 6 hours at room temperature. Twelve fields of view (100× magnification) were captured from each well of the chamber slide using an Olympus Provis AX electronic microscope connected to a Power Macintosh 8500, running OpenLab image analysis software (Improvision), under both FITC illumination conditions (NIBA filter block; λex = 470–490 nm, dichroic mirror = 505 nm, λem = 515–550 nm) and UV illumination conditions (Chroma 31000; λex = 340–380 nm, dichroic mirror = 400 nm, λem = 435–485 nm). Images were acquired with a Hamamatsu C4742-05 monochrome digital camera with 10-bit depth in a 1280-1024 pixel field connected to a DIG Snapper frame grabber. The exposure time, amplifier gain and offset values were controlled by the OpenLab software and were held constant throughout the experiment. A background (an image captured without a slide under the objective) was digitally subtracted from every image. A threshold was then applied to each image which was the lowest threhold that detected <1% of the pixels of an image of uninfected cells stained under identical conditions. The number of objects exceeding this threshold in each field of view were counted. […]

[2] = system: chemokine receptor internalisation; conditions: ref [27]; cited from earlier work
Text: Since BSCIs, such as Peptide 3, ...

HIV (IIIb) = HIV (IIIb) infection of Jurkat T-cells, p24gag immunofluorescence; type: cell-based; conditions: Peptide 3 100 μM, approximately 48 h after infection
Experimental: HIV infection of Jurkat T-cells was also monitored by high sensitivity quantitative immunofluoresence detection of viral p24^gag expression. Jurkat cells were infected with HIV in the presence or absence of Peptide 3 (100 μM) or SDF1α (100 ng/ml) as described above. Approximately 48 h after infection, the cells were attached to glass slides using a cytospin and then fixed by immersion in ice-cold 70% ethanol for 90 seconds. Expression of p24^gag was determined using quantitative immunofluoresence as previously described, except that the primary antibody was post-fixed to the section using paraformaldehyde to increase the sensitivity of the technique (see Methods). Viral infectivity was expressed as the number of cells stained for p24^gag expressed as a proportion of the total number of cells (detected using Hoechst 33342 nuclear dye). […]
Jurkat cells following HIV infection were attached to 8-well chamber slides (Becton-Dickinson) by spinning the slides using a plate rotor in a Labofuge centrifuge (Heraeus) at 3,000 × g for 5 minutes. […] A threshold was then applied to each image which was the lowest threhold that detected <1% of the pixels of an image of uninfected cells stained under identical conditions. The number of objects exceeding this threshold in each field of view were counted. […]

T1 sequence (P61073 whole entry): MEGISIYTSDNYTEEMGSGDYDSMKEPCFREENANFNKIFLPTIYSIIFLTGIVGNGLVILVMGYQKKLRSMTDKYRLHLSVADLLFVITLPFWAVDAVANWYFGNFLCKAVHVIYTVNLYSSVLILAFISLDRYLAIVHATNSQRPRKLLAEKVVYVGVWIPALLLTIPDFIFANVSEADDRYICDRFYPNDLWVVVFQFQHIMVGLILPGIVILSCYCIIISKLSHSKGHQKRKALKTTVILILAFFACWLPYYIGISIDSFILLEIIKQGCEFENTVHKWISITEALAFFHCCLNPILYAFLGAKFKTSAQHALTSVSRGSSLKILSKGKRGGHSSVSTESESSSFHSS

Q: For EICADPKQKWVQ [Peptide 3], which “Effect on binding of gp120:V3(IIIb) to Jurkat cells” value (CXCR4) is on record?
A: Its value is “no effect”.

Q: And the “Effect on SDF-1α induced chemotaxis” value [1]?
A: The value was “powerfully inhibited; also recorded: efficiently blocks”.

Q: And the “Effect on HIV infection of THP-1 cells (in words)” value (HIV strain MN; HIV strain MN, MIP1α 100 ng/ml, SDF1α 100 ng/ml, 72 h, p24gag immunofluorescence)?
A: The value was “powerfully inhibited; also recorded: blocked”.

Q: What about the “Inhibition of infection of THP-1 cells (p24gag)” value (HIV strain MN; HIV strain MN, differentiated THP-1 (hydrocortisone, PMA, TNFα), grown for 72 h prior to fixation, 12 fields of view) of the same sequence?
A: Its value is “more than 80%”.

Q: And the “Inhibition of CCR5 mediated HIV infection of THP-1 cells” value (HIV strain MN; assayed by immunofluoresence staining, HIV MN, 72 h, p24gag)?
A: Its value is 83 ± 7%.

Q: What about the “Effect on chemokine receptor internalisation induced by ligand binding” value [2] of the same sequence?
A: The value was “do not block”.

Q: What about the “Effect on viral infectivity (p24gag, in words)” value (HIV (IIIb)) of the same sequence?
A: The value was “no effect”.
